From patent publication US12102637B2, “Pharmaceutical formulations for treating endometriosis, uterine fibroids, polycystic ovary syndrome or adenomyosis” (AbbVie Inc., priority 2017, dated 2024)
Marks after values point to notes of the source that are not given here.

Tests used:
[1] = test system: premenopausal women with endometriosis with associated pain; experiment: Studies EM-I and EM-II: dysmenorrhea scores and Numeric Rating Scale (NRS) pain; format: in vivo, human
Excerpt: Women in these studies also provided a daily self-assessment of their endometriosis pain using the Numeric Rating Scale (NRS), on a scale ranging from 0 (no pain) to 10 (worst pain ever).

[2] = test system: premenopausal women with endometriosis with associated pain; experiment: Rescue analgesic (opioid, naproxen) use in EM-I and EM-II; format: in vivo, human
Protocol: These effects were less consistently observed for women taking elagolix 150 mg QD. […] Reduction in pain may be reflected by reduction in pain medication, such as prescription opioids or non-steroidal anti-inflammatory agents (NSAIDs) that may be prescribed or found over the counter, for example, naproxen or acetaminophen. […] In this pooled analysis of rescue analgesic use in two phase 3 trials, compared with placebo: […] […] In EM-1 and EM-2, 59% and 60% of patients used an opioid rescue analgesic for pain at baseline. The opioid rescue analgesics used at baseline were predominantly hydrocodone/acetaminophen (HC/APAP) and codeine/APAP at strengths of 5/300-325 mg and 30/300-500 mg. In EM-1, of all patients on an opioid at baseline, 98% and 2% were on HC/APAP and codeine/APAP, respectively. In EM-2, of all patients on an opioid at baseline, 50% were on HC/APAP, 16% were on codeine/APAP, 3% were on codeine, and 32% were on tramadol/APAP.

[3] = test system: women treated in Studies EM-I and EM-II; experiment: Adverse reactions in Studies EM-I and EM-II; format: in vivo, human; settings: for Percentage of Patients with Amenorrhoea / Percentage of Patients with Anxiety / Percentage of Patients with Arthralgia / Percentage of Patients with Headache / Percentage of Patients with Hot Flush / Percentage of Patients with Insomnia / Percentage of Patients with Nasopharyngitis / Percentage of Patients with Nausea / Percentage of Patients with Sinusitis / Percentage of Patients with Upper Respiratory Tract Infection: Studies EM-I and EM-II; for discontinuations due to hot flush / discontinuations due to nausea / patients who discontinued therapy due to adverse reactions: EM-I and EM-II
Excerpt: The population age range was 18-49 years old. Women who completed six months of treatment and met eligibility criteria continued treatment in two blinded six-month extension studies, for a total treatment duration of up to 12 months.

[4] = Pharmacokinetic properties of elagolix in healthy subjects; settings: human, in vivo
[5] = Drug interaction studies: elagolix in the presence of co-administered drug; format: in vivo, human; settings: for AUC Ratio (co-administration vs elagolix alone) / Cmax Ratio (co-administration vs elagolix alone): elagolix 150 mg single dose
Protocol: Drug interaction studies were performed with elagolix and other drugs that are likely to be co-administered and with drugs commonly used as probes for pharmacokinetic interactions.

[6] = Mutagenicity studies, in vitro and in vivo test systems
Excerpt: Mutagenicity studies have been performed with elagolix using in vitro and in vivo test systems.

[7] = test system: premenopausal women with endometriosis with associated pain; experiment: Blinded extension studies EM-III and EM-IV (12 months); format: in vivo, human; settings: patients maintained on their dose
Excerpt: Each placebo-controlled study assessed the reduction in endometriosis-associated pain over 6 months of treatment. More than 75 percent of women who completed Study EM-I and EM-II enrolled in the extension studies for an additional 6 months treatment period. Subjects were followed for up to 12 months post-treatment. In study EM-IV, efficacy was maintained when elagolix was taken with and without food.

healthy women = experiment: 3-menstrual cycle study in healthy women (ovulation, endometrial thickness); format: in vivo, human; settings: 150 mg QD and 200 mg BID, vs pretreatment
menstrual bleeding = experiment: Effects on menstrual bleeding patterns (electronic daily diary; bleeding/spotting days, intensity, amenorrhea, resumption of menses); format: in vivo, human; settings: for Mean bleeding/spotting days in prior 28 days / Mean Intensity score: Baseline; for Mean Intensity score: scale 1 to 4 (1 = spotting, 4 = heavy), subjects with at least 1 day of bleeding or spotting in 28 day interval
[8] = test system: premenopausal women with endometriosis with associated pain; experiment: Study EM-I: responders on Daily Endometriosis Pain Impact Scale; format: in vivo, human; settings: 150 mg QD
Excerpt: Each placebo-controlled study assessed the reduction in endometriosis-associated pain over 6 months of treatment. More than 75 percent of women who completed Study EM-I and EM-II enrolled in the extension studies for an additional 6 months treatment period. Subjects were followed for up to 12 months post-treatment. See FIGS. 11-14 The co-primary efficacy endpoints were the proportion of responders for dysmenorrhea and pelvic pain not related to menses (also known as non-menstrual pelvic pain [NMPP]) at Month 3 compared to placebo. The primary analysis independently evaluated these endpoints using a daily diary that asked patients to assess their pain and its impact on their daily activities, over the previous 24 hours. […] Women were defined as responders if they experienced clinically meaningful reduction in dysmenorrhea and/or NMPP with no increased analgesic use for endometriosis associated pain. Dyspareunia was evaluated as a secondary endpoint using the Daily Endometriosis Pain Impact Scale.

[9] = test system: bone mineral density (BMD); experiment: Bone mineral density by DXA (lumbar spine, Z-score) in placebo-controlled and extension studies; format: in vivo, human; settings: for patients with Z-score below the normal lower bound of −2.0: following 12 months of treatment
Protocol: In the placebo-controlled and extension clinical studies, BMD was measured by DXA. Changes observed in BMD at other anatomical sites (femoral neck, total hip) were generally smaller than lumbar spine.

[10] = Ketoconazole 400 mg once daily, N 11
[11] = Rifampin 600 mg single dose, N 12
[12] = Elagolix 150 mg QD, On Treatment Month 6
[13] = Elagolix 150 mg QD, On Treatment Month 12
[14] = Elagolix 200 mg BID, On Treatment Month 6
[15] = Elagolix 200 mg BID, On Treatment Month 12

## COc1cccc(-c2c(C)n(Cc3c(F)cccc3C(F)(F)F)c(=O)n(C[C@H](NCCCC(=O)O)c3ccccc3)c2=O)c1F [Compound A, 4-((R)-2-[5-(2-fluoro-3-methoxy-phenyl)-3-(2-fluoro-6-trifluoromethyl-benzyl)-4-methyl-2,6-dioxo-3,6-dihydro-2H-pyrimidin-1-yl]-1-phenyl-ethylamino)-butyric acid]
[1]; 150 mg QD and 200 mg BID, vs placebo at Month 3 and Month 6
  Numeric Rating Scale (NRS) endometriosis pain scores: highly statistically (p<0.001) significant reduction in NRS scores
[1]; both elagolix treatment groups, Month 1 through Month 6, vs placebo
  mean decreases from Baseline in dysmenorrhea scores: statistically significantly greater than placebo
[2]; 200 mg BID
  amount of opioid or naproxen rescue medication used vs baseline: reduced the amount of opioid (hydrocodone with acetaminophen) or naproxen rescue medication
[2]; pooled analysis, 200 mg BID, vs placebo
  mean percent daily rescue opioid pill counts: significant reduction in the mean percent daily pill counts
[2]; pooled analysis, both doses 150 QD and 200 BID, vs placebo
  percentage of days in which rescue opioid medication was taken: significant reduction in the percentage of days in which rescue opioid medication was taken
[3]; 150 mg QD, N = 475
  Percentage of Patients with Amenorrhoea: 4%
  Percentage of Patients with Anxiety: 3%
  Percentage of Patients with Arthralgia: 3%
  Percentage of Patients with Headache: 17%
  Percentage of Patients with Hot Flush: 23%
  Percentage of Patients with Insomnia: 6%
  Percentage of Patients with Nasopharyngitis: 6%
  Percentage of Patients with Nausea: 11%
  Percentage of Patients with Sinusitis: 5%
  Percentage of Patients with Upper Respiratory Tract Infection: 6%
[3]; 200 mg BID, N = 477
  Percentage of Patients with Amenorrhoea: 7%
  Percentage of Patients with Anxiety: 5%
  Percentage of Patients with Arthralgia: 5%
  Percentage of Patients with Headache: 20%
  Percentage of Patients with Hot Flush: 45%
  Percentage of Patients with Insomnia: 9%
  Percentage of Patients with Nasopharyngitis: 6%
  Percentage of Patients with Nausea: 16%
  Percentage of Patients with Sinusitis: 6%
  Percentage of Patients with Upper Respiratory Tract Infection: 4%
[3]; 150 mg QD
  discontinuations due to hot flush: 0.8%
  discontinuations due to nausea: 0.8%
  patients who discontinued therapy due to adverse reactions: 5.5%
[3]; 200 mg BID
  discontinuations due to hot flush: 2.5%
  discontinuations due to nausea: 1.5%
  patients who discontinued therapy due to adverse reactions: 9.6%
[3]; majority assessed as mild to moderate
  Events of hot flushes: dose-dependent
[4]
  Major route of elimination: Hepatic metabolism
[5]; [10]
  AUC Ratio (co-administration vs elagolix alone): 2.20
  Cmax Ratio (co-administration vs elagolix alone): 1.77
[5]; Rifampin 600 mg once daily
  AUC Ratio (co-administration vs elagolix alone): 1.65
  Cmax Ratio (co-administration vs elagolix alone): 2.00
[5]; [11]
  AUC Ratio (co-administration vs elagolix alone): 5.58
  Cmax Ratio (co-administration vs elagolix alone): 4.37
[5]; concomitant rifampin
  direction of the change in AUC of elagolix: ↑ elaolix
[6]
  mutagenic or clastogenic potential: no evidence of a mutagenic or clastogenic potential
[7]
  durability of improvement in dysmenorrhea, NMPP and dyspareunia: demonstrated for a total of 12 months
Healthy women
  mean endometrial thickness (transvaginal ultrasound): dose dependent decrease in the mean endometrial thickness
Menstrual bleeding; Elagolix 150 mg Once Daily
  Mean bleeding/spotting days in prior 28 days: 5.3 days
  Mean Intensity score: 2.6
Menstrual bleeding; Elagolix 200 mg Twice Daily
  Mean bleeding/spotting days in prior 28 days: 5.7 days
  Mean Intensity score: 2.5
Menstrual bleeding; first six months of treatment, 150 mg once daily
  incidence of amenorrhea: 6-17%
Menstrual bleeding; first six months of treatment, 200 mg twice daily
  incidence of amenorrhea: 13-52%
Menstrual bleeding; second 6 months of treatment, 150 mg once daily
  incidence of amenorrhea: 11-15%
Menstrual bleeding; second 6 months of treatment, 200 mg twice daily
  incidence of amenorrhea: 46-57%
Menstrual bleeding; up to 12 months, subjects who reported menstrual bleeding
  bleeding and spotting days and bleeding intensity: dose-dependent reduction in mean number of bleeding and spotting days and bleeding intensity
[8]
  Proportion of Responders, Dysmenorrhea (Month 3): 45.4*** %
[9]; [12]
  % Subjects Z-score ≤ −1.5 of Lumbar Spine: 0.8%
  Mean Percent Change From Baseline in Bone Mineral Density of Lumbar Spine: −0.52%
[9]; [13]
  % Subjects Z-score ≤ −1.5 of Lumbar Spine: 1.3%
  Mean Percent Change From Baseline in Bone Mineral Density of Lumbar Spine: −0.87%
[9]; [14]
  % Subjects Z-score ≤ −1.5 of Lumbar Spine: 4.1%
  Mean Percent Change From Baseline in Bone Mineral Density of Lumbar Spine: −2.54%
[9]; [15]
  % Subjects Z-score ≤ −1.5 of Lumbar Spine: 5.1%
  Mean Percent Change From Baseline in Bone Mineral Density of Lumbar Spine: −3.76%
[9]; both elagolix treatment groups, lumbar spine, total hip and femoral neck, post-treatment months 6 and 12
  BMD after stopping treatment: progressive recovery of BMD
[9]; 150 mg daily dose
  patients with Z-score below the normal lower bound of −2.0: no patient
[9]; 200 mg BID dose
  patients with Z-score below the normal lower bound of −2.0: less than 1%
